Measurements published in the NIST ThermoML archive (doi:10.1016/j.jct.2017.09.022).

Conditions: 101.33 kPa, Crystal, Small (less than 1 g) adiabatic calorimetry

C[C@@H](O)[C@H](N)C(=O)O [L-threonine]
Conditions | molar entropy [J/K/mol]
5 K | 0.02162
10 K | 0.1746
15 K | 0.6735
20 K | 1.713
25 K | 3.326
30 K | 5.488
35 K | 8.065
40 K | 10.89
45 K | 13.89
50 K | 17.13
60 K | 23.7
70 K | 30.6
80 K | 37.33
90 K | 43.98
100 K | 50.55
110 K | 57.04
120 K | 63.44
130 K | 69.68
140 K | 75.91
150 K | 82.06
160 K | 88.05
170 K | 93.95
180 K | 99.86
190 K | 105.59
200 K | 111.33
210 K | 116.9
220 K | 122.47
230 K | 128.04
240 K | 133.45
250 K | 138.85
260 K | 144.26
270 K | 149.58
280 K | 154.82
290 K | 160.14
298.15 K | 164.38
300 K | 165.29
310 K | 170.53
320 K | 175.6
330 K | 180.67
340 K | 185.75
350 K | 190.73
360 K | 195.72
370 K | 200.71
